Columns and labels:
[1] = biological target: T1, human serum albumin (HSA) (Homo sapiens, UniProt P02768); assay: UV absorption spectra of HSA with Ag(I) compounds; format: binding; details: HSA 5 µM, with hyperchromism
T1 construct: I (residues 1–195), II (196–383), and III (384–585); purchased Sigma
Experimental: (§1) The samples of HSA were prepared in 20 mM phosphate buffer (pH 7.4), whereas silver complexes (1 mM) stock solution were prepared in DMSO and further diluted in 20 mM phosphate buffer to reach the desired concentration. In all the samples, the final concentration of DMSO was not more than 1%. The concentration of HSA was determined using the Beer–Lambert law with the molar extinction coefficient of 36500 M^−1·cm^−1 at 280 nm. To study structural changes in HSA by the addition of [Ag(I)(Hnor)2](anion) compounds, the UV absorption spectra were measured, by variation of the concentration of the [Ag(I)(Hnor)2](anion) compounds, while keeping the concentration of HSA constant. UV absorption spectra, from 240 nm to 320 nm, were recorded on a Perkin–Elmer Lambda 45 spectrophotometer at 25°C. Quartz cuvettes of 1 cm path length were used for the measurements. Fluorescence measurements were performed on a Hitachi spectrofluorometer (Model F 7000) equipped with a PC. The fluorescence spectra were collected at 25°C with a path length cell of 1 cm. The slit width used was 5 nm with a protein concentration of 5 µM. The used excitation wavelength for the protein was 295 nm.
(§2) All the spectra were recorded after equilibration of the reaction mixture for 5 min.

[2] = tested on: two different cancer cell lines; parameters: method as in PMID 25042730; details: previous study; cited from earlier work
[3] = biological target: T1, human serum albumin (HSA); assay: Far-UV circular dichroism of HSA, α-helix content; format: binding; parameters: unit of the concentration uncertain; details: HSA 20 µM, free HSA 67.03
Experimental: CD measurements were carried out on a Jasco spectropolarimeter (Model J-815) equipped with a microcomputer. The instrument was calibrated with D-10-camphorsulfonic acid. All the CD measurements were performed at 25°C with a thermostatically controlled cell holder, attached to a Neslab RTE-110 water bath with an accuracy of ±0.1°C. Spectra were collected with a scan speed of […] and a response time of 1 s. Each spectrum was taken as the average of three scans. The far-UV CD spectra were measured at a protein concentration of 20 µM at a path length of 1 cm.
as §2
The CD signal, expressed in millidegree, obtained over the wavelength range of 190–250 nm, was converted to a mean residue ellipticity (MRE, θ), using the following conversion:(5) MRE=θobs mdeg/10×n×Cp×l, where θ obs is the CD in millidegree, the number of amino acid residues (585) is given by n, “l” is the path length (cm), and C p is the molarity. The unit of MRE is deg·cm^2·dmol^−1.

[4] = biological target: T1, human serum albumin (HSA); assay: Fluorescence quenching of HSA with addition of extra anions (KClO4, KNO3); format: binding; details: for K SV / K, binding constant / n, number of binding sites: HSA 5 µM
Experimental: as §1
Given the fact that the highest anticancer activity and also the most substantial HSA interaction takes place in case of the perchlorate and nitrate salts, it was decided to add extra perchlorate (and also nitrate) for all cases and to study the effect on the binding affinity. So, we carried out two sets of experiments and studied the binding propensity of Ag(I) compounds with HSA. In one experiment, the extra ClO4 ^− anion was added in a 1 : 4 ratio, compared to the Ag compound. In a second experiment, we used additional nitrate together with the Ag(I) compounds. Details are given in Figures 6 and 7, and the quite similar details for the other 3 compounds are presented in Figures S5 and S6 in Supplementary Materials.
To determine the role of only the anions (i.e., without Ag and Hnor), we also used KClO4 and KNO3 and studied their HSA binding by adding variable amounts of anions to the concentration maximum used in the experiments. […] When the extra anions + compounds were titrated, the results obtained did show an exponential increase in binding affinity of the Ag(I) compounds.
The binding strength was evaluated by calculating the Stern–Volmer constant (K sv), a number of the binding sites (n) and Gibbs free energy (ΔG); (Table 2). […] However, no correlation with the size of these four anions is seen.

[5] = biological target: T1, human serum albumin (HSA); assay: Fluorescence quenching titration of HSA (Stern–Volmer analysis); format: binding
Experimental: as §1, §2
The interaction between metal compounds and proteins has been widely investigated by using fluorescence spectroscopies. The luminescence response of HSA, upon addition of different concentrations of Ag(I) compounds, was studied in 20 mM phosphate buffer by using an emission titration experiment. Preliminary luminescence studies of the four starting Ag compounds 1–4 have been reported earlier by some of us. The excitation at 290 nm for all four compound results in a strong luminescence band at around 370 nm. The fluorescence studies of the ligand “Hnor” as well as the free silver salt, “AgNO3,” were also studied under the same conditions to compare the effect of separate entities with a combination of the two. Upon excitation at 295 nm, fluorescence intensity around 340 nm is known to reflect the changes of the tryptophan residue microenvironment. […] In Figure S3, similar data are presented for compounds 2–4, with only marginal differences upon anion variation.
The interaction of the Ag compounds with HSA was quantified; the Stern–Volmer equation has been employed:(1) F0/F=1+KSVQ=1+Kqτ0Q, where F 0 and F are the steady-state fluorescence intensities in the absence and presence of quencher at 340 nm, respectively. K sv is the Stern–Volmer quenching constant, K q stands for bimolecular quenching constant, τ 0 is the lifetime of the fluorophore in the absence of quencher, and [Q] is the concentration of quencher (i.e., the Ag compound). By calculating the quenching rate constants, K q, one can distinguish between the static quenching and the dynamic quenching, and this was evaluated by using the following equation:(2) Kq=KSV/τ0.
The value of tau(zero), τ 0, for biopolymers is known to be 10^−8 s. The Stern–Volmer quenching constant (K sv) for the fluorometric titration of the Ag(I) compounds into HSA solution was calculated from the linear relationship between F 0/F and [Ag(I)(Hnor)2]ClO4 (Figure 5) and enlisted in Table 1. In Figure S4, similar data are presented for compounds 2–4, confirming the above observations.
The equilibrium between free and bound molecules, when small molecules bind independently to a set of similar sites on a macromolecule, was ascertained by a modified Stern–Volmer equation [42]:(3) logF0−F/F=logK+n logQ, where K and n are the binding constant and the number of binding sites, respectively. A plot of log(F 0 − F/F) versus log[Q] was used to determine the value of K and n (inset in Figure 5). Several forces, like electrostatic, hydrogen bonds, weak van der Waals, hydrophobic, and steric contacts, can be thought of being responsible for the interaction between the albumin and Ag compounds. […]

[6] = Set A: +extra ClO4− (KClO4, 1:4 ratio)
[7] = Set B: +extra NO3− (KNO3, 1:4 ratio)
[8] = modified Stern–Volmer equation, HSA 5 µM, pH 7.4, 25°C

T1 sequence (P02768 25-609): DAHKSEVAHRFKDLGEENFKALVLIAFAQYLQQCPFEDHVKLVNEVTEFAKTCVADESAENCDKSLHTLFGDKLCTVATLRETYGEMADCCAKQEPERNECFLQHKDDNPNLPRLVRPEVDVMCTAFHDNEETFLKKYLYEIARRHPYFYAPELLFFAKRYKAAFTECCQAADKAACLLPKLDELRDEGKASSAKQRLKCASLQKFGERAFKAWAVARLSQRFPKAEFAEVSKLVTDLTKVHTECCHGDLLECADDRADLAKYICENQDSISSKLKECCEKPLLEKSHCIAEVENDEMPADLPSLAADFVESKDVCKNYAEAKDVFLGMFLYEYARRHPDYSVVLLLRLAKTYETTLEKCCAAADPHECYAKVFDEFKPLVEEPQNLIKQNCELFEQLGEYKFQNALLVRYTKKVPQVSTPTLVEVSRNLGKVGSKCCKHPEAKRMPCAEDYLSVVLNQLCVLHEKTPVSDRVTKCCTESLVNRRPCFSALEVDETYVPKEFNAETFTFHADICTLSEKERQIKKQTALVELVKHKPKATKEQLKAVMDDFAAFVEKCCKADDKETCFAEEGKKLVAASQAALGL

Structure (SMILES): [Ag+].[O-][Cl+3]([O-])([O-])[O-].c1ccc2c(c1)[nH]c1cnccc12.c1ccc2c(c1)[nH]c1cnccc12 [Compound 1, [Ag(Hnor)2](ClO4)]
- redshift (bathochromic effect) of HSA UV absorbance [1]: 7 nm
- anticancer activity [2]: comparable to cisplatin
- % α-helix of HSA ([3]; compound concentration 20 (unit uncertain)): 64.07%
- % α-helix of HSA ([3]; compound concentration 40 (unit uncertain)): 62.23%
- % α-helix of HSA ([3]; compound concentration 60 (unit uncertain)): 58.59%
- % α-helix of HSA ([3]; compound concentration 80 (unit uncertain)): 50.18%
- % α-helix of HSA ([3]; compound concentration 100 (unit uncertain)): 35.63%
- ∆G [4, 6]: -15.33 kcal/mol
- K SV [4, 6]: 2.21 10^7 M^−1
- K, binding constant [4, 6]: 17.2 10^10 M^−1
- n, number of binding sites [4, 6]: 1.77
- ∆G [4, 7]: -14.4 kcal/mol
- K SV [4, 7]: 2.06 10^7 M^−1
- K, binding constant [4, 7]: 3.64 10^10 M^−1
- n, number of binding sites [4, 7]: 1.64
- K SV, Stern–Volmer quenching constant ([5]; HSA 5 µM, 20 mM phosphate buffer pH 7.4, 25°C, excitation 295 nm): 5.37 10^5 M^−1
- redshift at the maximal emission wavelength of Tyr and Trp residues of HSA ([5]; HSA 5 µM, increasing compound concentration): 7 nm
- K q, bimolecular quenching rate constant ([5]; Kq = KSV/τ0, τ0 = 10^−8 s, HSA 5 µM, 25°C): 53.7 10^12 M^−1·s^−1
- K, binding constant [5, 8]: 3.74 10^6 M^−1
- n, number of binding sites [5, 8]: 1.1
- ∆G, standard free energy change of binding ([5]; ΔG = −2.303 RT logK): -8.963 kcal/mol

From publication PMC5889910, “β-Carboline Silver Compound Binding Studies with Human Serum Albumin: A Comprehensive Multispectroscopic Analysis and Molecular Modeling Study” (Bioinorganic Chemistry and Applications, 2018)
